“And” between values parts separate entries of the source, which are not always exact repeats. Identical values can stand only once. “Also recorded” adds a separate entry of the source.
Assays:
[1] = system: ATCC strain 8739 Escherichia coli; test: Bromcresol Purple colour change with E. coli; format: cell-based
Description: Bromcresol Purple is an indicator dye that turns yellow in the presence of E. coli bacteria. […] All concentrations were plated out to 10^−7 dilutions to ascertain the log reduction.
Flake OptiMSM was weighed out using a certified Mettler Toledo AG245 balance SN: 1115210833 and aliquoted for each concentration. […] Tubes were cooled to room temperature which was approximately 20° C. All tubes were then spiked with the same dilution of Escherichia coli that gave a level of colony forming units at 6.0×10^6/mL (6.8). The tubes were then incubated at 25° C. Daily observation for color change was performed during the first seven days. The tubes were mixed periodically to ensure that the OptiMSM was well equilibrated at all times. A positive and negative control was ascertained.

Escherichia coli = test: USP <51> AET in cosmetic cream / cosmetic compositions, 28 days; format: cell-based; conditions: for Microbial growth (count): 48 hrs-28 days; for Log Reduction from Initial Microorganism Inoculum: 14 Days, 28 Days
Description: (§1) The cosmetic cream matrix into which the MSM was incorporated was preservative free. An additional cream, with a preservative, was also spiked with E. coli and evaluated.

Candida albicans = test: as above; format: cell-based; conditions: for Microbial growth (count): 48 hrs-28 days; for Log Reduction from Initial Microorganism Inoculum: 14 Days, 28 Days
Description: as §1

Pseudomonas aeruginosa = test: as above; format: cell-based; conditions: for Microbial growth (count): 48 hrs-28 days; for Log Reduction from Initial Microorganism Inoculum: 14 Days, 28 Days
Description: as §1

Staphylococcus aureus = test: as above; format: cell-based; conditions: for Log Reduction from Initial Microorganism Inoculum: 14 Days, 28 Days
Description: as §1

Aspergillus niger = test: as above; format: cell-based; conditions: 10% MSM in cosmetic cream without preservative, 48 hrs-28 days
Description: as §1

[2] = system: Lactobacillus acidophilus; test: Growth of Lactobacillus acidophilus in Acidophilus milk fortified with MSM; format: cell-based
Description: 31, 2013. […] The Acidophilus milk was low fat (Darigold).

[3] = 10% MSM in Preservative Free Cosmetic Composition #1, 48 hours after inoculation
[4] = 10% MSM in Preservative Free Cosmetic Composition #1, 7 days after inoculation
[5] = 10% MSM in cosmetic cream without preservative
[6] = 10% MSM in preservative-free jojoba cosmetic cream
[7] = 10% MSM, Preservative Free Cosmetic Composition #1
[8] = 10% MSM, Preservative Free Cosmetic Composition #2

With `CS(C)(=O)=O` [MSM, Methylsulfonylmethane] the “Bromcresol Purple colour of the broth” value ([1]; 5-7% MSM, Day one) was “color change of the broth to yellow”, the “Bromcresol Purple colour of the broth” value ([1]; 8% MSM, listed as order: Day one, Day three) was “slight clearing of color; also recorded: turning to the typical yellow color” and the “Bromcresol Purple colour of the broth” value ([1]; 9% MSM, Day 7) was “turning to a yellow color”. For the same molecule, the “Bromcresol Purple colour of the broth” value ([1]; 10%-16% MSM, listed as order: Day 7, Day 30) was “No color change; also recorded: no signs of change”, the “Test Product Cytotoxicity” value (Vero cells (ATCC#CCL-81)) was 00 and the “Microbial growth (count)” value (Escherichia coli; [3]) was 5.4 × 10^4. The “Microbial growth (count)” value (Escherichia coli; [4]) was <10, the “Microbial growth (count)” value (Escherichia coli; [5]) was <10 and the “Log Reduction from Initial Microorganism Inoculum” value (“Log Reduction” for short) (Escherichia coli; [6]) was 5.7 log. For the same molecule, the “Log Reduction” value (Escherichia coli; [7]) was 5.8 log, the “Log Reduction” value (Escherichia coli; [8]) was 5.8 log and the “Microbial growth (count)” value (Candida albicans; 10% MSM in Preservative Free Cosmetic Composition #2, after 48 hours incubation) was 9.0 × 10^2. For the same molecule, the “Microbial growth (count)” value (Candida albicans; 10% MSM in Preservative Free Cosmetic Composition #2, after 7 days incubation) was <10, the “Microbial growth (count)” value (Candida albicans; [5]) was <10 and the “Log Reduction” value (Candida albicans; [6]) was 4.3 log. The “Log Reduction” value (Candida albicans; [7]) was 5.3 log, the “Log Reduction” value (Candida albicans; [8]) was 5.3 log and the “Microbial growth (count)” value (Pseudomonas aeruginosa; [3]) was 7.3 × 10^3. For the same molecule, the “Microbial growth (count)” value (Pseudomonas aeruginosa; [4]) was <10, the “Microbial growth (count)” value (Pseudomonas aeruginosa; [5]) was <10 and the “Log Reduction” value (Pseudomonas aeruginosa; [6]) was 5.3 log. The “Log Reduction” value (Pseudomonas aeruginosa; [7]) was 5.8 log, the “Log Reduction” value (Pseudomonas aeruginosa; [8]) was 5.8 log and the “Microbial growth (count)” value (Staphylococcus aureus; 10% MSM in cosmetic cream without preservative, 48 hrs-28 days) was <10. For the same molecule, the “Log Reduction” value (Staphylococcus aureus; [6]) was 5.6 log, the “Log Reduction” value (Staphylococcus aureus; [7]) was 5.7 log and the “Log Reduction” value (Staphylococcus aureus; [8]) was 5.7 log. For the same molecule, the “Microbial growth (count)” value (Aspergillus niger; 48 hours after inoculation) was 8 × 10^3, the “Microbial growth (count)” value (Aspergillus niger; 14 days after inoculation) was 6 × 10^3 and the “Microbial growth (count)” value (Aspergillus niger; 28 days after inoculation) was 5 × 10^2. The peak growth ([2]; 0.5% MSM) was 10.72 logs, the “log growth lower than control” value ([2]; 0.5% MSM, listed as order: Day 14, Day 28) was 0.74 logs and 1.00 logs and the peak growth ([2]; 5.0% MSM) was 10.89 log. For the same molecule, the “log increase in growth within the first 8 hours (duplicates)” value ([2]; […] MSM) was 2.27 logs, the peak growth ([2]; […] MSM) was 10.59 logs and the “log growth lower than control” value ([2]; […] MSM, Day 28) was 0.68 logs. For the same molecule, the “Growth of Lactobacillus acidophilus in Milk fortified with MSM average” value (“Growth … with MSM average” for short) ([2]; 0.50% MSM, Day 7) was 10.68 log, the “Growth … with MSM average” value ([2]; 0.50% MSM, Day 14) was 6.22 log and the “Log Growth of Lactobacillus acidophilus in Milk fortified with MSM” value (from here on “Log Growth of Lactobacillus acidophilus”) ([2]; 0.50% MSM, Day 21) was 5.37 log. For the same molecule, the “Growth … with MSM average” value ([2]; 0.50% MSM, Day 21) was 5.37 log, the “Growth … with MSM average” value ([2]; 0.50% MSM, Day 28) was 3.00 log and the “Growth … with MSM average” value ([2]; 0.50% MSM, hour 0) was 6.98 log. The “Log Growth of Lactobacillus acidophilus” value ([2]; 0.50% MSM, hour 8) was 9.06 log and 9.00 log, the “Growth … with MSM average” value ([2]; 0.50% MSM, hour 8) was 9.03 log and the “Growth … with MSM average” value ([2]; 0.50% MSM, hour 24) was 9.38 log. The “Log Growth of Lactobacillus acidophilus” value ([2]; 0.50% MSM, hour 32) was 9.12 log, the “Growth … with MSM average” value ([2]; 0.50% MSM, hour 32) was 9.16 log and the “Log Growth of Lactobacillus acidophilus” value ([2]; 0.50% MSM, hour 48) was 8.55 log and 8.69 log. For the same molecule, the “Growth … with MSM average” value ([2]; 0.50% MSM, hour 48) was 8.62 log, the “Log Growth of Lactobacillus acidophilus” value ([2]; 0.50% MSM, hour 56) was 8.77 log and 8.69 log and the “Growth … with MSM average” value ([2]; 0.50% MSM, hour 56) was 8.73 log. For the same molecule, the “Log Growth of Lactobacillus acidophilus” value ([2]; 0.50% MSM, hour 72) was 8.56 log and 8.67 log, the “Growth … with MSM average” value ([2]; 0.50% MSM, hour 72) was 8.62 log and the “Growth … with MSM average” value ([2]; 0.50% MSM, hour 80) was 9.72 log. The “Growth … with MSM average” value ([2]; 0.50% MSM, hour 96) was 10.09 log, the “Growth … with MSM average” value ([2]; 0.50% MSM, hour 104) was 9.50 log and the “Growth … with MSM average” value ([2]; 5.00% MSM, Day 7) was 10.71 log. The “Growth … with MSM average” value ([2]; 5.00% MSM, Day 14) was 8.04 log, the “Log Growth of Lactobacillus acidophilus” value ([2]; 5% MSM, Day 21) was 5.64 log and 5.48 log and the “Growth … with MSM average” value ([2]; 5.00% MSM, Day 21) was 5.56 log. For the same molecule, the “Log Growth of Lactobacillus acidophilus” value ([2]; 5% MSM, Day 28) was 2.52 log, the “Growth … with MSM average” value ([2]; 5.00% MSM, Day 28) was 2.52 log and the “Log Growth of Lactobacillus acidophilus” value ([2]; 5% MSM, hour 0) was 6.56 log and 6.47 log. The “Growth … with MSM average” value ([2]; 5.00% MSM, hour 0) was 6.52 log, the “Growth … with MSM average” value ([2]; 5.00% MSM, hour 8) was 8.91 log and the “Growth … with MSM average” value ([2]; 5.00% MSM, hour 24) was 9.29 log. The “Growth … with MSM average” value ([2]; 5.00% MSM, hour 32) was 9.26 log, the “Log Growth of Lactobacillus acidophilus” value ([2]; 5% MSM, hour 48) was 8.78 log and 8.72 log and the “Growth … with MSM average” value ([2]; 5.00% MSM, hour 48) was 8.75 log. For the same molecule, the “Log Growth of Lactobacillus acidophilus” value ([2]; 5% MSM, hour 56) was 8.88 log and 8.7 log, the “Growth … with MSM average” value ([2]; 5.00% MSM, hour 56) was 8.79 log and the “Log Growth of Lactobacillus acidophilus” value ([2]; 5% MSM, hour 72) was 8.75 log and 8.63 log. For the same molecule, the “Growth … with MSM average” value ([2]; 5.00% MSM, hour 72) was 8.69 log, the “Growth … with MSM average” value ([2]; 5.00% MSM, hour 80) was 9.79 log and the “Growth … with MSM average” value ([2]; 5.00% MSM, hour 96) was 10.20 log. The “Growth … with MSM average” value ([2]; 5.00% MSM, hour 104) was 9.56 log, the “Growth … with MSM average” value ([2]; […] MSM, Day 7) was 10.50 log and the “Growth … with MSM average” value ([2]; […] MSM, Day 14) was 7.33 log. The “Growth … with MSM average” value ([2]; […] MSM, Day 21) was 5.465 log, the “Growth … with MSM average” value ([2]; […] MSM, Day 28) was 3.325 log and the “Growth … with MSM average” value ([2]; […] MSM, hour 0) was 6.69 log. The “Growth … with MSM average” value ([2]; […] MSM, hour 8) was 9.02 log, the “Log Growth of Lactobacillus acidophilus” value ([2]; […] MSM, hour 24) was 9.01 log and the “Growth … with MSM average” value ([2]; […] MSM, hour 24) was 9.13 log. The “Growth … with MSM average” value ([2]; […] MSM, hour 32) was 9.09 log, the “Growth … with MSM average” value ([2]; […] MSM, hour 48) was 8.85 log and the “Growth … with MSM average” value ([2]; […] MSM, hour 56) was 8.76 log. For the same molecule, the “Growth … with MSM average” value ([2]; […] MSM, hour 72) was 8.66 log, the “Growth … with MSM average” value ([2]; […] MSM, hour 80) was 9.74 log and the “Growth … with MSM average” value ([2]; […] MSM, hour 96) was 10.25 log. The “Growth … with MSM average” value ([2]; […] MSM, hour 104) was 9.63 log, the “log increase in growth, hour 0 to hour 8” value ([2]; milk fortified with MSM (all concentrations), minimum) was ≥ 1.73 log and the “increase over Acidophilus milk growth at Day 14” value ([2]; milk fortified with MSM (concentrations not given)) was 0.86 logs and 1.3 logs.

From patent US9487749B2 (priority 2009, dated 2016)
